Tests used:
Polygonum convolvulus = assay: Post-emergence action against weeds, greenhouse, visual scoring of control; type: in vivo; conditions: 11 days after application
Description: (§1) Seeds or rhizome pieces of monocotyledonous and dicotyledonous weeds were placed in sandy loam soil in plastic pots, covered with soil and cultivated in a greenhouse under good growth conditions. Three weeks after sowing, the test plants were treated at the 2- to 4-leaf stage. The compounds according to the invention, formulated as wettable powders or as emulsion concentrates, were sprayed onto the green parts of the plants in various dosages at a water application rate of 100 to 800 l/ha (converted).
(§2) 0%=no control 100%=complete control

Veronica persica = assay: as above; type: in vivo; conditions: 11 days after application
Description: as §1, with “(converted). After the test plants had been left to stand in the greenhouse for 10 to 28 days under optimum growth conditions, the effect of the preparations was scored visually in comparison to untreated controls.” for “(converted).”
as §2

`COc1c(Cl)ccc(Cl)c1C(=O)O` [Compound B1-1, dicamba] was tested, and the “Polygonum convolvulus Control in %” value (Polygonum convolvulus; 100 g of ai/ha) was 40%.
In the case of `O=C(O)c1nc(Cl)ccc1Cl` [Compound B2-1, clopyralid], the “Veronica persica Control in %” value (Veronica persica; 50 g of ai/ha) is reported as 0%.
For `Nc1c(Cl)c(F)nc(OCC(=O)O)c1Cl` [Compound B2-2, fluoroxypyr], the “Veronica persica Control in %” value (Veronica persica; 80 g of ai/ha) was 60%.
With `Nc1c(Cl)c(Cl)nc(C(=O)O)c1Cl` [Compound B2-4, picloram] the “Polygonum convolvulus Control in %” value (Polygonum convolvulus; 80 g of ai/ha) was 20%.
With `Nc1nc(C2CC2)nc(C(=O)[O-])c1Cl.[K+]` [Compound B6-1, aminocyclopyrachlor] the “Polygonum convolvulus Control in %” value (Polygonum convolvulus; 25 g of ai/ha) was 60%.
For “sodium salt of 2-iodo-N-[(4-methoxy-6-methyl-1,3,5-triazin-2-yl)carbamoyl]benzenesulfonamide [Compound A-2]”, the “Veronica persica Control in %” value (Veronica persica; 2.5 g of ai/ha, 0%=no control, 100%=complete control) was 0%.
